Reference: patent US12522602B2, “Derivatives having 2,3-dihydro-1H-indene or 2,3-dihydrobenzofuran moiety or pharmaceutically acceptable salt thereof and pharmaceutical compositions comprising the same” (YUHAN CORPORATION, priority 2019, dated 2026)

test system: GM1 production in Jurkat cells; test: cells; assay type: cell-based; conditions: Homo sapiens, Jurkat, 72 h

In order of rising IC50:
1. CCCCc1ccc(-c2ccc3c(c2)CC(CC)(CC)C3NC(=O)O[C@@H]2CN3CCC2CC3)cc1 (stereo partly drawn) [Example 280, (S)-quinuclidin-3-yl (5-(4-butylphenyl)-2,2-diethyl-2,3-dihydro-1H-inden-1-yl)carbamate]  1.6 nM
2. CCc1ccc(-c2ccc3c(c2)CC(CC)(CC)C3NC(=O)O[C@@H]2CN3CCC2CC3)cc1 (stereo partly drawn) [Example 277, (S)-quinuclidin-3-yl (2,2-diethyl-5-(4-ethylphenyl)-2,3-dihydro-1H-inden-1-yl)carbamate]  2.7 nM
3. CCC1(CC)Cc2cc(-c3ccc(C4CC4)cc3)ccc2C1NC(=O)O[C@@H]1CN2CCC1CC2 (stereo partly drawn) [Example 281, (S)-quinuclidin-3-yl (5-(4-cyclopropylphenyl)-2,2-diethyl-2,3-dihydro-1H-inden-1-yl)carbamate]  5 nM
4. CCC1(CC)Cc2cc(-c3ccc(C(C)C)cc3)ccc2C1NC(=O)O[C@@H]1CN2CCC1CC2 (stereo partly drawn) [Example 282, (S)-quinuclidin-3-yl (2,2-diethyl-5-(4-isopropylphenyl)-2,3-dihydro-1H-inden-1-yl)carbamate]  5.6 nM
5. CCCc1ccc(-c2ccc3c(c2)CC(CC)(CC)C3NC(=O)O[C@@H]2CN3CCC2CC3)cc1 (stereo partly drawn) [Example 278, (S)-quinuclidin-3-yl (2,2-diethyl-5-(4-propylphenyl)-2,3-dihydro-1H-inden-1-yl)carbamate]  6 nM
6. CCC1(CC)Cc2cc(-c3ccc(C(C)(C)C)cc3)ccc2C1NC(=O)O[C@@H]1CN2CCC1CC2 (stereo partly drawn) [Example 279, (S)-quinuclidin-3-yl (5-(4-(tert-butyl)phenyl)-2,2-diethyl-2,3-dihydro-1H-inden-1-yl)carbamate]  7.3 nM
7. CCOc1ccc(-c2ccc3c(c2)CC(CC)(CC)C3NC(=O)O[C@@H]2CN3CCC2CC3)cc1 (stereo partly drawn) [Example 284, (S)-quinuclidin-3-yl (5-(4-ethoxyphenyl)-2,2-diethyl-2,3-dihydro-1H-inden-1-yl)carbamate]  8.5 nM
8. CCc1ccc(/C=C/c2ccc3c(c2)CC(C)(C)C3NC(=O)O[C@@H]2CN3CCC2CC3)cc1 (stereo partly drawn) [Example 274, (S)-quinuclidin-3-yl (5-((E)-4-ethylstyryl)-2,2-dimethyl-2,3-dihydro-1H-inden-1-yl)carbamate]  10.3 nM
9. CC1(C)Cc2cc(/C=C/c3cccc(F)c3)ccc2C1NC(=O)O[C@@H]1CN2CCC1CC2 (stereo partly drawn) [Example 273, (S)-quinuclidin-3-yl (5-((E)-3-fluorostyryl)-2,2-dimethyl-2,3-dihydro-1H-inden-1-yl)carbamate]  13.4 nM
10. CCC1(CC)Cc2cc(-c3ccc(OC)cc3)ccc2C1NC(=O)O[C@@H]1CN2CCC1CC2 (stereo partly drawn) [Example 283, (S)-quinuclidin-3-yl (2,2-diethyl-5-(4-methoxyphenyl)-2,3-dihydro-1H-inden-1-yl)carbamate]  17.2 nM
11. CC1(C)Cc2cc(/C=C/C3CCCCC3)ccc2C1NC(=O)O[C@@H]1CN2CCC1CC2 (stereo partly drawn) [Example 275, (S)-quinuclidin-3-yl (5-((E)-2-cyclohexylvinyl)-2,2-dimethyl-2,3-dihydro-1H-inden-1-yl)carbamate]  25 nM
12. COc1ccnc(OC)c1-c1ccc2c(c1)CC(C)(C)C2NC(=O)O[C@@H]1CN2CCC1CC2 (stereo partly drawn) [Example 271, (S)-quinuclidin-3-yl (5-(2,4-dimethoxypyridin-3-yl)-2,2-dimethyl-2,3-dihydro-1H-inden-1-yl)carbamate]  30.6 nM
13. CCC1(CC)Cc2cc(-c3ccc(F)cc3)ccc2C1NC(=O)O[C@@H]1CN2CCC1CC2 (stereo partly drawn) [Example 276, (S)-quinuclidin-3-yl (2,2-diethyl-5-(4-fluorophenyl)-2,3-dihydro-1H-inden-1-yl)carbamate]  33.2 nM
14. CC(=O)c1sccc1-c1ccc2c(c1)CC(C)(C)C2NC(=O)O[C@@H]1CN2CCC1CC2 (stereo partly drawn) [Example 272, (S)-quinuclidin-3-yl (5-(2-acetylthiophen-3-yl)-2,2-dimethyl-2,3-dihydro-1H-inden-1-yl)carbamate]  49.3 nM
